According to patent US8592181B2, “Brazzein variant having higher sweetness and method for preparing multi-variant” (Chung-Ang University Industry-Academy Cooperation Foundation, priority 2009, dated 2013):

Columns and labels:
human sense of taste = assay: Sweetness measured by human sense of taste (20 trained subjects, minimum concentration at which sweetness is first sensed); format: in vivo; conditions: for Multiples of increased sweetness to minor-type brazzein / Minimum stimulation level in which one senses sweetness for first time: primary brazzein variants; for Multiples of increased sweetness to minor-type brazzein: relative to minor-type brazzein; for Minimum stimulation level in which one senses sweetness for first time: 20 trained subjects; for Sweetness ratios of sucrose (1 g/100 ml) to primary brazzein variants (minor-type brazzein: 2000): relative to 1 g/100 ml sucrose threshold
Method: Since the recombinant brazzein according to the present invention is not a sucrose-based compound having a cyclic ring, the sweetness of the recombinant brazzein was not measured using a saccharometer. Therefore, the activity of the recombinant brazzein was measured using the human sense of taste. Sugar content measurement was performed on 20 subjects who were trained to feel substantially the same minimum concentration of sucrose in which they could sense sweetness using a sucrose solution. That is, a concentration of each brazzein variant in which the subjects could sense sweetness for the first time was measured. Also, a sweetness ratio of the sucrose solution to the wild-type brazzein was 1 g/100 ml, which was a minimum stimulation level in which the subjects could sense sweetness. Also, a sweetness ratio of the minor-type brazzein protein to the wild-type brazzein was 500 μg/100 ml, which was a minimum stimulation level in which the subjects could sense sweetness. Therefore, the sweetness was calculated using the sweetness ratios (That is, 1/0.0005=2000 for the minor-type brazzein).
Also, the brazzein multi-variants were measured for activity (sweetness) in the same manner as in Example 3-1.

[1] = Thermal stability: heated at 80° C. for 4 hours in 50 mM Tris-HCl (pH 8.0), sweetness change level measured by the 20 subjects; format: physicochemical; conditions: primary variants
Method: On the basis of the results measured in Example 3-1, 100 mg of each of the brazzein variants having high sweetness, that is, brazzein(H30K) set forth in SEQ ID NO: 99, brazzein(H30R) set forth in SEQ ID NO: 100, brazzein(E35D) set forth in SEQ ID NO: 109, brazzein(E40A) set forth in SEQ ID NO: 113, brazzein(E40A) set forth in SEQ ID NO: 113, brazzein(E40D) set forth in SEQ ID NO: 114, brazzein(E40K) set forth in SEQ ID NO: 115, brazzein(E40H) set forth in SEQ ID NO: 116 and brazzein(E40R) set forth in SEQ ID NO: 117, was dissolved in a 50 mM Tris-HCl (pH 8.0) solution, and heated at 80° C. for 4 hours. Based on the sweetness measured before the heat treatment of the respective primary brazzein variants, a sweetness change level of each primary brazzein variant was then measured by the 20 subjects in the same manner as in Example 3-1.
Also, the brazzein multi-variants were measured for thermal stability in the same manner as in Example 3-2. […] From the high performance liquid chromatography analysis of the quaternary variants out of the brazzein multi-variants, it was confirmed that the quaternary variants maintained their constant thermal stability in spite of the fact that the quaternary variants had different structural properties than the minor-type brazzein protein.

Substance: E35D: primary brazzein variant: Glu at position 35 of minor-type brazzein substituted with Asp (DKCKKVYENYPVSKCQLANQCNYDCKLRKHARSGDCFYDEKRNLQCICDYCEY; Brazzein(E35D)) [Brazzein E35D]
- Multiples of increased sweetness to minor-type brazzein (human sense of taste): 3.3
- Minimum stimulation level in which one senses sweetness for first time (human sense of taste): 150 μg/100 ml
- Sweetness ratios of sucrose (1 g/100 ml) to primary brazzein variants (minor-type brazzein: 2000) (human sense of taste): 6,600
- Thermal stability (relative activity after heat treatment) [1]: maintained their thermal stabilities

Substance: E40A: primary brazzein variant: Glu at position 40 of minor-type brazzein substituted with Ala (DKCKKVYENYPVSKCQLANQCNYDCKLRKHARSGECFYDAKRNLQCICDYCEY; Brazzein(E40A)) [Brazzein E40A]
- Multiples of increased sweetness to minor-type brazzein (human sense of taste): 3.3
- Minimum stimulation level in which one senses sweetness for first time (human sense of taste): 150 μg/100 ml
- Sweetness ratios of sucrose (1 g/100 ml) to primary brazzein variants (minor-type brazzein: 2000) (human sense of taste): 6,600
- Thermal stability (relative activity after heat treatment) [1]: maintained their thermal stabilities

Substance: K5R: primary brazzein variant: Lys at position 5 of minor-type brazzein substituted with Arg (DKCKRVYENYPVSKCQLANQCNYDCKLRKHARSGECFYDEKRNLQCICDYCEY; Brazzein(K5R)) [Brazzein K5R]
- Multiples of increased sweetness to minor-type brazzein (human sense of taste): 0.05
- Minimum stimulation level in which one senses sweetness for first time (human sense of taste): 10,000 μg/100 ml
- Sweetness ratios of sucrose (1 g/100 ml) to primary brazzein variants (minor-type brazzein: 2000) (human sense of taste): 100

Substance: K29A: primary brazzein variant: Lys at position 29 of minor-type brazzein substituted with Ala (DKCKKVYENYPVSKCQLANQCNYDCKLRAHARSGECFYDEKRNLQCICDYCEY; Brazzein(K29A)) [Brazzein K29A]
- Multiples of increased sweetness to minor-type brazzein (human sense of taste): 0.05
- Minimum stimulation level in which one senses sweetness for first time (human sense of taste): 10,000 μg/100 ml
- Sweetness ratios of sucrose (1 g/100 ml) to primary brazzein variants (minor-type brazzein: 2000) (human sense of taste): 100

Substance: K29D: primary brazzein variant: Lys at position 29 of minor-type brazzein substituted with Asp (DKCKKVYENYPVSKCQLANQCNYDCKLRDHARSGECFYDEKRNLQCICDYCEY; Brazzein(K29D)) [Brazzein K29D]
- Multiples of increased sweetness to minor-type brazzein (human sense of taste): 0.05
- Minimum stimulation level in which one senses sweetness for first time (human sense of taste): 10,000 μg/100 ml
- Sweetness ratios of sucrose (1 g/100 ml) to primary brazzein variants (minor-type brazzein: 2000) (human sense of taste): 100

Substance: K29E: primary brazzein variant: Lys at position 29 of minor-type brazzein substituted with Glu (DKCKKVYENYPVSKCQLANQCNYDCKLREHARSGECFYDEKRNLQCICDYCEY; Brazzein(K29E)) [Brazzein K29E]
- Multiples of increased sweetness to minor-type brazzein (human sense of taste): 0.05
- Minimum stimulation level in which one senses sweetness for first time (human sense of taste): 10,000 μg/100 ml
- Sweetness ratios of sucrose (1 g/100 ml) to primary brazzein variants (minor-type brazzein: 2000) (human sense of taste): 100

Substance: K29H: primary brazzein variant: Lys at position 29 of minor-type brazzein substituted with His (DKCKKVYENYPVSKCQLANQCNYDCKLRHHARSGECFYDEKRNLQCICDYCEY; Brazzein(K29H)) [Brazzein K29H]
- Multiples of increased sweetness to minor-type brazzein (human sense of taste): 0.05
- Minimum stimulation level in which one senses sweetness for first time (human sense of taste): 10,000 μg/100 ml
- Sweetness ratios of sucrose (1 g/100 ml) to primary brazzein variants (minor-type brazzein: 2000) (human sense of taste): 100

Substance: K29R: primary brazzein variant: Lys at position 29 of minor-type brazzein substituted with Arg (DKCKKVYENYPVSKCQLANQCNYDCKLRRHARSGECFYDEKRNLQCICDYCEY; Brazzein(K29R)) [Brazzein K29R]
- Multiples of increased sweetness to minor-type brazzein (human sense of taste): 0.05
- Minimum stimulation level in which one senses sweetness for first time (human sense of taste): 10,000 μg/100 ml
- Sweetness ratios of sucrose (1 g/100 ml) to primary brazzein variants (minor-type brazzein: 2000) (human sense of taste): 100

Substance: R32A: primary brazzein variant: Arg at position 32 of minor-type brazzein substituted with Ala (DKCKKVYENYPVSKCQLANQCNYDCKLRKHAASGECFYDEKRNLQCICDYCEY; Brazzein(R32A)) [Brazzein R32A]
- Multiples of increased sweetness to minor-type brazzein (human sense of taste): 0.08
- Minimum stimulation level in which one senses sweetness for first time (human sense of taste): 6,000 μg/100 ml
- Sweetness ratios of sucrose (1 g/100 ml) to primary brazzein variants (minor-type brazzein: 2000) (human sense of taste): 167

Substance: R32D: primary brazzein variant: Arg at position 32 of minor-type brazzein substituted with Asp (DKCKKVYENYPVSKCQLANQCNYDCKLRKHADSGECFYDEKRNLQCICDYCEY; Brazzein(R32D)) [Brazzein R32D]
- Multiples of increased sweetness to minor-type brazzein (human sense of taste): 0.05
- Minimum stimulation level in which one senses sweetness for first time (human sense of taste): 10,000 μg/100 ml
- Sweetness ratios of sucrose (1 g/100 ml) to primary brazzein variants (minor-type brazzein: 2000) (human sense of taste): 100

Substance: R32E: primary brazzein variant: Arg at position 32 of minor-type brazzein substituted with Glu (DKCKKVYENYPVSKCQLANQCNYDCKLRKHAESGECFYDEKRNLQCICDYCEY; Brazzein(R32E)) [Brazzein R32E]
- Multiples of increased sweetness to minor-type brazzein (human sense of taste): 0.05
- Minimum stimulation level in which one senses sweetness for first time (human sense of taste): 10,000 μg/100 ml
- Sweetness ratios of sucrose (1 g/100 ml) to primary brazzein variants (minor-type brazzein: 2000) (human sense of taste): 100

Substance: R32H: primary brazzein variant: Arg at position 32 of minor-type brazzein substituted with His (DKCKKVYENYPVSKCQLANQCNYDCKLRKHAHSGECFYDEKRNLQCICDYCEY; Brazzein(R32H)) [Brazzein R32H]
- Multiples of increased sweetness to minor-type brazzein (human sense of taste): 0.16
- Minimum stimulation level in which one senses sweetness for first time (human sense of taste): 3,000 μg/100 ml
- Sweetness ratios of sucrose (1 g/100 ml) to primary brazzein variants (minor-type brazzein: 2000) (human sense of taste): 334

Substance: R32K: primary brazzein variant: Arg at position 32 of minor-type brazzein substituted with Lys (DKCKKVYENYPVSKCQLANQCNYDCKLRKHAKSGECFYDEKRNLQCICDYCEY; Brazzein(R32K)) [Brazzein R32K]
- Multiples of increased sweetness to minor-type brazzein (human sense of taste): 0.16
- Minimum stimulation level in which one senses sweetness for first time (human sense of taste): 3,000 μg/100 ml
- Sweetness ratios of sucrose (1 g/100 ml) to primary brazzein variants (minor-type brazzein: 2000) (human sense of taste): 334

Substance: R42A: primary brazzein variant: Arg at position 42 of minor-type brazzein substituted with Ala (DKCKKVYENYPVSKCQLANQCNYDCKLRKHARSGECFYDEKANLQCICDYCEY; Brazzein(R42A)) [Brazzein R42A]
- Multiples of increased sweetness to minor-type brazzein (human sense of taste): 0.05
- Minimum stimulation level in which one senses sweetness for first time (human sense of taste): 10,000 μg/100 ml
- Sweetness ratios of sucrose (1 g/100 ml) to primary brazzein variants (minor-type brazzein: 2000) (human sense of taste): 100

Substance: R42D: primary brazzein variant: Arg at position 42 of minor-type brazzein substituted with Asp (DKCKKVYENYPVSKCQLANQCNYDCKLRKHARSGECFYDEKDNLQCICDYCEY; Brazzein(R42D)) [Brazzein R42D]
- Multiples of increased sweetness to minor-type brazzein (human sense of taste): 0.05
- Minimum stimulation level in which one senses sweetness for first time (human sense of taste): 10,000 μg/100 ml
- Sweetness ratios of sucrose (1 g/100 ml) to primary brazzein variants (minor-type brazzein: 2000) (human sense of taste): 100

Substance: R42E: primary brazzein variant: Arg at position 42 of minor-type brazzein substituted with Glu (DKCKKVYENYPVSKCQLANQCNYDCKLRKHARSGECFYDEKENLQCICDYCEY; Brazzein(R42E)) [Brazzein R42E]
- Multiples of increased sweetness to minor-type brazzein (human sense of taste): 0.05
- Minimum stimulation level in which one senses sweetness for first time (human sense of taste): 10,000 μg/100 ml
- Sweetness ratios of sucrose (1 g/100 ml) to primary brazzein variants (minor-type brazzein: 2000) (human sense of taste): 100

Substance: R42H: primary brazzein variant: Arg at position 42 of minor-type brazzein substituted with His (DKCKKVYENYPVSKCQLANQCNYDCKLRKHARSGECFYDEKHNLQCICDYCEY; Brazzein(R42H)) [Brazzein R42H]
- Multiples of increased sweetness to minor-type brazzein (human sense of taste): 0.16
- Minimum stimulation level in which one senses sweetness for first time (human sense of taste): 3,000 μg/100 ml
- Sweetness ratios of sucrose (1 g/100 ml) to primary brazzein variants (minor-type brazzein: 2000) (human sense of taste): 334

Substance: R42K: primary brazzein variant: Arg at position 42 of minor-type brazzein substituted with Lys (DKCKKVYENYPVSKCQLANQCNYDCKLRKHARSGECFYDEKKNLQCICDYCEY; Brazzein(R42K)) [Brazzein R42K]
- Multiples of increased sweetness to minor-type brazzein (human sense of taste): 0.16
- Minimum stimulation level in which one senses sweetness for first time (human sense of taste): 3,000 μg/100 ml
- Sweetness ratios of sucrose (1 g/100 ml) to primary brazzein variants (minor-type brazzein: 2000) (human sense of taste): 334
